# Reference: patent US4362743A, “Antibacterial monic acid esters” (Beecham Group Limited, priority 1980, dated 1982)
# Read-outs that look alike come from different tables or passages of the source.
# What was measured:
# [1] = test system: M. suipneumoniae LABER; experiment: Anti-mycoplasmal activity in vitro MIC; assay type: cell-based; settings: Mesomycoplasma hyopneumoniae, 144 h; M. suipneumoniae LABER; Friis broth, 0.9% agarose, 6 days 37° C.; read-out: M.I.C.
# [2] = test system: M. suipneumoniae MS16; experiment: Anti-mycoplasmal activity in vitro MIC; assay type: cell-based; settings: Mesomycoplasma hyopneumoniae, 144 h; M. suipneumoniae MS16; Friis broth, 0.9% agarose, 6 days 37° C.; read-out: M.I.C.
# [3] = test system: M. hyorhinis ATCC 23234; experiment: Anti-mycoplasmal activity in vitro MIC; assay type: cell-based; settings: Mesomycoplasma hyorhinis, ATCC23234, 144 h
# [4] = test system: M. suipneumoniae J2206/183b; experiment: Anti-mycoplasmal activity in vitro MIC; assay type: cell-based; settings: Mesomycoplasma hyopneumoniae, 144 h
# [5] = test system: M. bovis NCTC 10131; experiment: microbe, parasite or virus in culture; assay type: cell-based; settings: NCTC10131, 144 h
# [6] = test system: M. suipneumoniae PW/C/210; experiment: Anti-mycoplasmal activity in vitro MIC; assay type: cell-based; settings: Mesomycoplasma hyopneumoniae, 144 h; M. suipneumoniae PW/C/210; Friis broth, 0.9% agarose, 6 days 37° C.; read-out: M.I.C.
# [7] = test system: Ps. aeruginosa 10662; experiment: Human bacteria MIC; assay type: cell-based
# Protocol: (§1) The values were determined by serial dilutions in nutrient agar with 5% chocolated horse blood after incubations for 18 hours at 37° C.
# [8] = test system: Corneybacterium xerosis 9755; experiment: Human bacteria MIC; assay type: cell-based; settings: 18 h
# Protocol: as §1
# [9] = test system: K. aerogenes A; experiment: Human bacteria MIC; assay type: cell-based; settings: Klebsiella aerogenes
# Protocol: as §1
# [10] = test system: Strep Group B 2788; experiment: Human bacteria MIC; assay type: cell-based; settings: Strep Group B 2788; nutrient agar, 5% chocolated horse blood, 18 hours 37° C.; read-out: M.I.C.
# Protocol: as §1
# [11] = test system: Neisseria catarralis 1502; experiment: Human bacteria MIC; assay type: cell-based; settings: Neisseria catarralis 1502; nutrient agar, 5% chocolated horse blood, 18 hours 37° C.; read-out: M.I.C.
# Protocol: as §1
# [12] = test system: Staph. aureus Russell; experiment: Human bacteria MIC; assay type: cell-based; settings: Staphylococcus aureus; Staph. aureus Russell; nutrient agar, 5% chocolated horse blood, 18 hours 37° C.; read-out: M.I.C.
# Protocol: as §1
# [13] = test system: E. Coli NCT 10418; experiment: Human bacteria MIC; assay type: cell-based; settings: Escherichia coli
# Protocol: as §1
# [14] = test system: Strep. pneumoniae CN33; experiment: Human bacteria MIC; assay type: cell-based; settings: Streptococcus pneumoniae; Strep. pneumoniae CN33; nutrient agar, 5% chocolated horse blood, 18 hours 37° C.; read-out: M.I.C.
# Protocol: as §1
# [15] = test system: Haemophilus influenzae Q1; experiment: Human bacteria MIC; assay type: cell-based
# Protocol: as §1
# [16] = test system: E. coli ESS; experiment: Human bacteria MIC; assay type: cell-based; settings: Escherichia coli
# Protocol: as §1
# [17] = test system: Strep. faecalis I; experiment: Human bacteria MIC; assay type: cell-based; settings: Enterococcus faecalis, nutrient agar, 5% chocolated horse blood, 18 hours 37° C.
# Protocol: as §1
# [18] = test system: Bacillus subtilis 6633; experiment: Human bacteria MIC; assay type: cell-based
# Protocol: as §1
# [19] = test system: Strep. Group C 64/848; experiment: Human bacteria MIC; assay type: cell-based; settings: Strep. Group C 64/848; nutrient agar, 5% chocolated horse blood, 18 hours 37° C.; read-out: M.I.C.
# Protocol: as §1
# [20] = test system: Staph. aureus W2827; experiment: Human bacteria MIC; assay type: cell-based; settings: Staphylococcus aureus
# Protocol: as §1
# [21] = test system: P. mirabilis 889; experiment: Human bacteria MIC; assay type: cell-based
# Protocol: as §1
# [22] = test system: Strep. pyogenes R80/421; experiment: Human bacteria MIC; assay type: cell-based; settings: Streptococcus pyogenes
# Protocol: as §1
# [23] = test system: Pasteurella multocida 1633; experiment: Human bacteria MIC; assay type: cell-based; settings: Pasteurella multocida 1633; nutrient agar, 5% chocolated horse blood, 18 hours 37° C.; read-out: M.I.C.
# Protocol: as §1
# [24] = test system: Staph. aureus Oxford; experiment: Human bacteria MIC; assay type: cell-based; settings: Staphylococcus aureus; Staph. aureus Oxford; nutrient agar, 5% chocolated horse blood, 18 hours 37° C.; read-out: M.I.C.
# Protocol: as §1
# [25] = test system: M. hyorhinis ATCC 25021; experiment: Anti-mycoplasmal activity in vitro MIC; assay type: cell-based; settings: Mesomycoplasma hyorhinis, ATCC25021, 144 h
# [26] = test system: M. bovigenitalium ATCC 14173; experiment: Anti-mycoplasmal activity in vitro MIC; assay type: cell-based; settings: 144 h
# [27] = test system: M. pneumoniae ATCC 15492; experiment: Anti-mycoplasmal activity in vitro MIC; assay type: cell-based; settings: Mycoplasmoides pneumoniae, ATCC15492, 144 h; M. pneumoniae ATCC 15492; Friis broth, 0.9% agarose, 6 days 37° C.; read-out: M.I.C.
# [28] = Serum binding by ultrafiltration; assay type: in vitro ADME; settings: pig, porcine serum, 8 mcg/ml, read-out: % bound to pig serum (converted)
# Protocol: Serum binding was assessed by ultrafiltration of porcine serum containing compounds at 8 mcg/ml, and through an Amicon CF50A ultrafiltration cone. Separation of ultrafiltrate was achieved by centrifugation. Unbound concentrations of compound were measured in the ultrafiltrate by microbiological assay (B. subtilis ATCC 6633) against standards prepared in saline.
Compound,MIC [1],MIC [2],MIC [3],MIC [5],MIC [6],MIC [10],MIC [11],MIC [12],MIC [14],MIC [17],MIC [19],MIC [23],MIC [24],MIC [25],MIC [26],further results
"C/C(=C\C(=O)OCc1ccc(C=NO)o1)C[C@@H]1OC[C@H](C[C@@H]2O[C@H]2[C@@H](C)[C@H](C)O)[C@@H](O)[C@H]1O [Example 7, 5-Hydroxyiminomethylfurfuryl monate A]",0.5 µg/mL,0.5 µg/mL,0.5 µg/mL,≤ 0.01 µg/mL,0.5 µg/mL,2.5 µg/mL,0.25 µg/mL,2.5 µg/mL,2.5 µg/mL,> 100 µg/mL,2.5 µg/mL,2.5 µg/mL,2.5 µg/mL,0.5 µg/mL,0.025 µg/mL,"MIC ([4]; J2206/183B): 1 µg/mL; MIC ([7]; Pseudomonas aeruginosa, 10662, 18 h): > 100 µg/mL; MIC [8]: > 100 µg/mL; MIC ([9]; 18 h): > 100 µg/mL; MIC ([13]; 18 h): > 100 µg/mL; MIC ([15]; Haemophilus influenzae, Q1, 18 h): 0.25 µg/mL; MIC ([16]; 18 h): 2.5 µg/mL; MIC ([18]; Bacillus subtilis, 6633, 18 h): 1 µg/mL; MIC ([20]; W2827, 18 h): 5 µg/mL; MIC ([21]; Proteus mirabilis, 889, 18 h): > 100 µg/mL; MIC ([22]; R80/421, 18 h): 1 µg/mL"
"C/C(=C\C(=O)OCCCC(=NO)c1ccccc1)C[C@@H]1OC[C@H](C[C@@H]2O[C@H]2[C@@H](C)[C@H](C)O)[C@@H](O)[C@H]1O [Example 1, 4-Hydroxyimino-4-phenylbutyl monate A]",0.1 µg/mL,0.1 µg/mL,0.1 µg/mL,≤ 0.01 µg/mL,0.1 µg/mL,2.5 µg/mL,0.2 µg/mL,2.5 µg/mL,0.5 µg/mL,> 100 µg/mL,2.5 µg/mL,5 µg/mL,2.5 µg/mL,0.1 µg/mL,0.025 µg/mL,"MIC [27]: 2.5 µg/mL; fraction unbound [28]: < 0.08; MIC ([4]; M. suipneumoniae J2206/183b, Friis broth, 0.9% agarose, 6 days 37° C., read-out: M.I.C.): 0.25 µg/mL; MIC ([7]; Pseudomonas aeruginosa, Ps. aeruginosa 10662, nutrient agar, 5% chocolated horse blood, 18 hours 37° C., read-out: M.I.C.): > 100 µg/mL; MIC ([9]; K. aerogenes A, nutrient agar, 5% chocolated horse blood, 18 hours 37° C., read-out: M.I.C.): > 100 µg/mL; MIC ([13]; E. Coli NCT 10418, nutrient agar, 5% chocolated horse blood, 18 hours 37° C., read-out: M.I.C.): > 100 µg/mL; MIC ([15]; Haemophilus influenzae Q1, nutrient agar, 5% chocolated horse blood, 18 hours 37° C., read-out: M.I.C.): 0.5 µg/mL; MIC ([16]; E. coli ESS, nutrient agar, 5% chocolated horse blood, 18 hours 37° C., read-out: M.I.C.): 2.5 µg/mL; MIC ([18]; Bacillus subtilis 6633, nutrient agar, 5% chocolated horse blood, 18 hours 37° C., read-out: M.I.C.): 1 µg/mL; MIC ([20]; Staph. aureus W2827, nutrient agar, 5% chocolated horse blood, 18 hours 37° C., read-out: M.I.C.): 2.5 µg/mL; MIC ([21]; Proteus mirabilis, P. mirabilis 889, nutrient agar, 5% chocolated horse blood, 18 hours 37° C., read-out: M.I.C.): > 100 µg/mL; MIC ([22]; Strep. pyogenes R80/421, nutrient agar, 5% chocolated horse blood, 18 hours 37° C., read-out: M.I.C.): 2.5 µg/mL"
